Series [1] can be described thus: Drug uptake in mitochondria of human HCT116 cells at 1 uM after 12 hrs by mass spectrometric analysis. Conditions: hct-116, 12 h. In kind it is ADME.
In series [2] the test system is HCT-116. The series can be described thus: Induction of apoptosis in human HCT116 cells at 1 to 10 uM after 24 hrs by FITC/Annexin-V/7-AAD staining-based FACS analysis. In kind it is functional, cell-based. For orientation: A flow cytometer gives signals particle by particle.
Series [3] can be described thus: Drug uptake in cytosol of human HCT116 cells at 1 uM after 12 hrs by mass spectrometric analysis. In kind it is ADME, subcellular, HCT-116.
The test system of series [4] is HCT-116. The series can be described thus: Antiproliferative activity against human HCT116 cells after 24 hrs by MTT assay. Conditions: HCT-116, 24 h. In kind it is functional, cell-based. On the technique in general: Tetrazolium assays rely on reduction of a dye to a coloured formazan, in cell work by metabolically active cells.
In series [5] the target is Heat shock protein HSP 90-alpha (Homo sapiens, UniProt P07900). The series can be described thus: Inhibition of FITC-geldanamycin binding to recombinant human HSP90alpha expressed in Escherichia coli by fluorescence anisotropy method. On the technique in general: Polarisation of emitted light reports the rotation of a fluorescent probe.
Series [6] relates to HCT-116. The series can be described thus: Induction of apoptosis in human HCT116 cells at 10 uM after 24 hrs by FITC/Annexin-V/7-AAD staining-based FACS analysis. In kind it is functional, cell-based.
In series [7] the target is T1, Heat shock protein 75 kDa, mitochondrial (Homo sapiens, UniProt Q12931).
T1 sequence (Q12931 whole entry): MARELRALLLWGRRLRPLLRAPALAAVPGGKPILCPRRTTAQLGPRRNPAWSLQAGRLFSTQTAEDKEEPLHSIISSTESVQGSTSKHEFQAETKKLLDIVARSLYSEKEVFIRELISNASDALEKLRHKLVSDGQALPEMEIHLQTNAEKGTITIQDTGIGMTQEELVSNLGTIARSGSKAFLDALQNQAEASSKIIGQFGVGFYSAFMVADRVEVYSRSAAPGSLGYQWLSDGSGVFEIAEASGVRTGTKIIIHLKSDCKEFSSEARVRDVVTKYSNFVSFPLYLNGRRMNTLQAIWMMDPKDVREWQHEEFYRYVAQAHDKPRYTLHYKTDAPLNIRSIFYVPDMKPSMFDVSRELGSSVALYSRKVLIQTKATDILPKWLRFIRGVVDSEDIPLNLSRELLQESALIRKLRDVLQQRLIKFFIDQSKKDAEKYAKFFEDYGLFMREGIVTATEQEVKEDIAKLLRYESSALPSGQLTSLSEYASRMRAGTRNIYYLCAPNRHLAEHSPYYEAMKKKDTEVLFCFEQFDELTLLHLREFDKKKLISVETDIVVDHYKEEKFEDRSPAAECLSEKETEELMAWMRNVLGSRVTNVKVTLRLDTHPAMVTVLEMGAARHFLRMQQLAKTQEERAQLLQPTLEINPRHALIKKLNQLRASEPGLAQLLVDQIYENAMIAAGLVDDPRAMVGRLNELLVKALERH
Description: Inhibition of recombinant human N-terminal His6-tagged TRAP1 (60 to 704 residues) ATPase activity expressed in Escherichia coli BL21-CodonPlus-RIL after overnight incubation by BioMol green dye-based assay

Series [8] deals with HCT-116. Kind of series: Induction of apoptosis in human HCT116 cells at 0.1 to 10 uM after 24 hrs by FITC/Annexin-V/7-AAD staining-based FACS analysis. In kind it is functional, cell-based.

Active and inactive are the calls of the source. The calls are words filed in the database; no cut-off is given here.

For `CCNC(=O)c1noc(-c2cc(C(C)C)c(O)cc2O)c1NC(=O)c1ccc(C(=O)NC(=N)N)cc1`, the Drug uptake result in series [1] is “Active”; in series [3], “Not Active”. Besides, the result in series [2] was Active. Also, the half-maximal inhibitory concentration (IC50) in series [4] worked out at 1.32 µM; in series [5], 0.021 µM. Moreover, the Kd in series [5] worked out at 0.0015 µM.

For `CCNC(=O)c1noc(-c2cc(C(C)C)c(O)cc2O)c1NC(=O)CCCCC[P+](c1ccccc1)(c1ccccc1)c1ccccc1.[Br-]`, the Drug uptake result is on record as “Active” in series [1] and “Not Active” in series [3]. In addition, the results for the IC50 in series [4] and in series [7] were 5.12 µM and 25 µM, respectively. Also, the outcome in series [6] was Active.

On to `CCNC(=O)c1noc(-c2cc(C(C)C)c(O)cc2O)c1NC(=O)CCCCCCc1ccc(C(=O)NC(=N)N)cc1`, for which the Drug uptake result in series [1] was “Active”; in series [3], “Not Active”. Besides, the figures for the half-inhibitory concentration (IC50) in series [4] and in series [7] were 6.17 µM and 3 µM, respectively.

Turning to `CCNC(=O)c1noc(-c2cc(C(C)C)c(O)cc2O)c1NC(=O)CCCCC(=O)NCCCNCCNCCCN`, the Drug uptake result in series [1] is given as “Active”; in series [3] it was “Not Active”. Besides, the concentration for half-maximal inhibition (IC50) is 26.7 µM in series [4] and 5 µM in series [7]. For the same molecule, the result in series [8] was Active.

For the molecule `CCNC(=O)c1noc(-c2cc(C(C)C)c(O)cc2O)c1NC(=O)CCN1CCOCC1`, half-maximal inhibition in series [7] (IC50) was put at 20 µM.

Regarding `COc1cccc(-c2cc(F)ccc2[C@H]2Cc3nc(N)nc(C)c3C(=O)N2)n1`, the Drug uptake result in series [1] is recorded as “Not Active”. The result in series [8] was Active. Besides, the 50% inhibitory concentration (IC50) in series [7] came out at 0.2 µM.

In the case of `CCNC(=O)c1noc(-c2cc(C(C)C)c(O)cc2O)c1NC(=O)CCCCC[n+]1ccccc1.[Br-]`, the Drug uptake result in series [3] is “Not Active”. Moreover, the IC50 in series [4] was 7.86 µM; in series [7], 10 µM. For the same molecule, the outcome in series [6] was Active.

For `CCNC(=O)c1noc(-c2cc(C(C)C)c(O)cc2O)c1NC(=O)c1ccc(OC)cc1`, the Drug uptake entry in series [1] was “Not Active”. The IC50 in series [4] came to 0.87 µM; in series [7], 0.4 µM. Moreover, the outcome in series [8] was Active.

What is called IC50 is the midpoint of a concentration-inhibition curve. Usually Kd stands for the constant that tells how readily two partners part at equilibrium.
